Our source for the MIC values is patent US5262417A, “Antibacterial quinolone compounds” (The Upjohn Company, priority 1991, dated 1993).

Where two headings read alike, the source gives them in different places.

Common to all, as to experiment: Minimum inhibitory concentration (MIC) by agar dilution
What all share (type): cell-based
On the technique in general: In agar dilution, organisms are placed on agar that contains the substance at set levels.

One assay deals with Enterobacter cloacae. The settings on record: UC9382, 20 h, read-out: Minimum Inhibitory Concentration. The protocol: (§1) Briefly, MIC values are determined in unsupplemented Mueller Hinton Agar (MHA). The compounds tested are diluted serially into molten MHA at 47° C. The agar is poured into petri dishes and allowed to harden. The various bacteria used for testing are grown overnight on MHA at 35° C. and transferred to Trypticase soy broth (TSB) until a turbidity of 0.5 McFarland standard is obtained. The bacteria are diluted one to 20 in TSB and inoculated on the plates (1 μl using a Steers replicator).
as §1, with “Compounds of this invention can also be tested for in vitro antimicrobial activity using standard testing procedures such as the determination of minimum inhibitory concentration (MIC) by agar dilution as described in "Methods for Dilution Antimicrobial Susceptibility Tests for Bacteria That Grow Aerobically" (MFT) published Jan. […] Briefly,” for “Briefly,”, “(1μl” for “(1 μl”

A further assay concerns Streptococcus faecalis. The note with it: Enterococcus faecalis, UC9217, 20 h, read-out: Minimum Inhibitory Concentration. Here is the method: as §1, with “The antibacterial activity of the compounds of Formula IC was determined by using standard testing procedures such as the determination of minimum inhibitory concentration (MIC) by agar dilution as described in "Methods for Dilution Antimicrobial Susceptibility Tests for Bacteria That Grow Aerobically" (MFT) published January 1983 by the National Committee for Clinical Laboratory Standards, 771 East Lancaster Avenue, Villanova, Pa. 19084, USA. Briefly,” for “Briefly,”
(§2) Compounds of this invention can also be tested for in vitro antimicrobial activity using standard testing procedures such as the determination of minimum inhibitory concentration (MIC) by agar dilution as described in "Methods for Dilution Antimicrobial Susceptibility Tests for Bacteria That Grow Aerobically" (MFT) published Jan. 1983 by the National Committee for Clinical Laboratory Standards, 771 East Lancaster Avenue, Villanova, Penna. 19084, USA. Briefly, MIC values are determined in unsupplemented Mueller Hinton Agar (MHA). The compounds tested are diluted serially into molten MHA at 47° C. The agar is poured into petri dishes and allowed to harden. The various bacteria used for testing are grown overnight on MHA at 35° C. and transferred to Trypticase soy broth (TSB) until a turbidity of 0.5 McFarland standard is obtained. The bacteria are diluted one to 20 in TSB and inoculated on the plates (1μl using a Steers replicator). […] The MIC test results of selected of Formula B compounds of this invention are found in Tables B2-B9.

For another assay, the system named is Escherichia coli. The note with it: Escherichia coli. The protocol: (§3) The antibacterial activity of the compounds of Formula IC was determined by using standard testing procedures such as the determination of minimum inhibitory concentration (MIC) by agar dilution as described in "Methods for Dilution Antimicrobial Susceptibility Tests for Bacteria That Grow Aerobically" (MFT) published January 1983 by the National Committee for Clinical Laboratory Standards, 771 East Lancaster Avenue, Villanova, Pa. 19084, USA. Briefly, MIC values are determined in unsupplemented Mueller Hinton Agar (MHA). The compounds tested are diluted serially into molten MHA at 47° C. The agar is poured into petri dishes and allowed to harden. The various bacteria used for testing are grown overnight on MHA at 35° C. and transferred to Trypticase soy broth (TSB) until a turbidity of 0.5 McFarland standard is obtained. The bacteria are diluted one to 20 in TSB and inoculated on the plates (1 μl using a Steers replicator).
as §2

For another assay, the system named is Pseudomonas aeruginosa. The note with it: Pseudomonas aeruginosa. Here is the method:
as §3, §2

The subject of the next assay is Staphylococcus aureus. The settings on record: Staphylococcus aureus. The protocol: as §3, §2
The test system of another assay is Klebsiella pneumoniae. The settings on record: UC12081, 20 h, read-out: Minimum Inhibitory Concentration. The protocol: as §3, §2
The test system of assay [1] is Staphylococcus epidermidis. The note with it: 20 h, read-out: Minimum Inhibitory Concentration. The protocol: as §3, §2
A further assay has as its system Streptococcus pneumoniae. The settings on record: Streptococcus pneumoniae, UC41, 20 h, read-out: Minimum Inhibitory Concentration, S. pneumoniae UC 41, Table CI. The protocol: as §3, §2
The subject of the next assay is Serratia marcescens. The settings on record: 20 h, read-out: MINIMUM INHIBITORY CONCENTRATION
Here is the method: as §3, §2

For assay [2], the system named is Acinetobacter calcoaceticus. The settings on record: Acinetobacter calcoaceticus, UC12170, 20 h, read-out: Minimum Inhibitory Concentration, A. calcoaceticus UC 12170, Table CI. Here is the method:
as §3, §2

For a further assay, the system named is Streptococcus pyogenes. The note with it: Streptococcus pyogenes, UC152, 20 h, read-out: Minimum Inhibitory Concentration, S. pyogenes UC 152, Table CI. Here is the method: as §3, §2
For a further assay, the system named is Citerobacter freundii. The settings on record: Citrobacter freundii, UC3507, 20 h, read-out: Minimum Inhibitory Concentration. Here is the method: as §3, §2
Another assay concerns Proteus penneri. The note with it: Proteus penneri, UC9679, 20 h, read-out: Minimum Inhibitory Concentration, P. penneri UC 9679, Table CI. Here is the method:
as §3, §2

The mark [3] stands for this setting: UC6674, 20 h, read-out: Minimum Inhibitory Concentration, E. coli UC 6674, Table CI.
The mark [4] stands for this setting: UC9451, 20 h, read-out: Minimum Inhibitory Concentration, E. coli UC 9451, Table CI.
Where [5] appears, read: UC9855, 20 h, read-out: Minimum Inhibitory Concentration, E. coli UC 9855, Table CI.
The mark [6] stands for this setting: UC9952, 20 h, read-out: Minimum Inhibitory Concentration, E. coli UC 9952, Table CI.
Setting [7] is: UC6676, 20 h, read-out: Minimum Inhibitory Concentration, Ps. aeruginosa UC 6676, Table CI.
Where [8] appears, read: UC9191, 20 h, read-out: Minimum Inhibitory Concentration, Ps. aeruginosa UC 9191, Table CI.
The mark [9] stands for this setting: UC12120, 20 h, read-out: Minimum Inhibitory Concentration, Ps. aeruginosa UC 12120, Table CI.
[10] abbreviates: UC6685, 20 h, read-out: Minimum Inhibitory Concentration, S. aureus UC 6685, Table CI.
The mark [11] stands for this setting: UC9213, 20 h, read-out: Minimum Inhibitory Concentration, S. aureus UC 9213, Table CI.
Where [12] appears, read: UC9218, 20 h, read-out: Minimum Inhibitory Concentration, S. aureus UC 9218, Table CI.
The mark [13] stands for this setting: UC9271, 20 h, read-out: Minimum Inhibitory Concentration, S. aureus UC 9271, Table CI.

Turning to `C#CC(C)(C)n1cc(C(=O)O)c(=O)c2cc(F)c(N3CCNCC3)c(F)c21.CS(=O)(=O)O` [A, (+,-)-6,8-difluoro-1,4-dihydro-1-(1,1-dimethyl-2-propynyl)-4-oxo-7-(1-piperazinyl)-3-quinolinecarboxylic acid methanesulfonate], the MIC in the assay on Enterobacter cloacae was 0.25 µg/mL; in the assay with Streptococcus faecalis, 8 µg/mL; in the assay on Escherichia coli (setting [3]) it was 0.25 µg/mL; in the assay with Escherichia coli (setting [4]) it was 0.25 µg/mL; in the assay with Escherichia coli (setting [5]), 0.25 µg/mL; in the assay with Escherichia coli (setting [6]), 0.25 µg/mL. In addition, the MIC with Pseudomonas aeruginosa (setting [7]) turned out to be 4 µg/mL; in the assay with Pseudomonas aeruginosa (setting [8]) it was 2 µg/mL; with Pseudomonas aeruginosa (setting [9]), 2 µg/mL; in the assay with Staphylococcus aureus (setting [10]), 2 µg/mL; in the assay with Staphylococcus aureus (setting [11]), 4 µg/mL; with Staphylococcus aureus (setting [12]), 2 µg/mL. Further, the MIC was 2 µg/mL in the assay with Staphylococcus aureus (setting [13]); 0.5 µg/mL in the assay with Klebsiella pneumoniae; 1 µg/mL in [1]; 8 µg/mL in the assay with Streptococcus pneumoniae; 2 µg/mL in the assay on Serratia marcescens; 1 µg/mL in assay [2]. Moreover, the MIC with Streptococcus pyogenes came out at 8 µg/mL; in the assay on Citerobacter freundii it was 0.25 µg/mL; in the assay with Proteus penneri, 1 µg/mL.
In the case of `C#CCn1cc(C(=O)O)c(=O)c2cc(F)c(N3CCNCC3)c(F)c21.CS(=O)(=O)O` [C, (+,-)-6,8-difluoro-1,4-dihydro-4-oxo-7-(1-piperazinyl)-1-(2-propynyl)-3-quinolinecarboxylic acid methanesulfonate], the MIC in the assay on Enterobacter cloacae is 1 µg/mL; in the assay with Streptococcus faecalis, over 64 µg/mL; with Escherichia coli (setting [3]), 1 µg/mL; with Escherichia coli (setting [4]), 2 µg/mL; with Escherichia coli (setting [5]), 2 µg/mL; with Escherichia coli (setting [6]), 1 µg/mL. For the same molecule, the MIC in the assay on Pseudomonas aeruginosa (setting [7]) worked out at 16 µg/mL; with Pseudomonas aeruginosa (setting [8]) it was 8 µg/mL; in the assay with Pseudomonas aeruginosa (setting [9]), 8 µg/mL; with Staphylococcus aureus (setting [10]), 32 µg/mL; in the assay on Staphylococcus aureus (setting [11]), 32 µg/mL; in the assay with Staphylococcus aureus (setting [12]) it was 32 µg/mL. Further, the MIC in the assay with Staphylococcus aureus (setting [13]) is 32 µg/mL; in the assay on Klebsiella pneumoniae, 2 µg/mL; in [1], 16 µg/mL; in the assay on Streptococcus pneumoniae, over 64 µg/mL; with Serratia marcescens, 0.25 µg/mL; in [2] it was 8 µg/mL. For the same molecule, the MIC stood at 32 µg/mL in the assay with Streptococcus pyogenes, 1 µg/mL in the assay on Citerobacter freundii and 1 µg/mL in the assay with Proteus penneri.
